Measurements from US10851053B2, “Chemical compounds” (GlaxoSmithKline Intellectual Property Development Limited, priority 2016, dated 2020).
Values joined by “and” are separate entries in the source; they are usually repeats but may differ in a detail not shown here. Identical values can stand only once. Counter-ions that a name gives are not always drawn.

Tested on: ATF4 translation (ATF4 pathway), SH-SY5Y-ATF4-NanoLuc cells
Assay: ATF4 cell based assay (ATF4 5'-UTR NanoLuc luciferase reporter, Thapsigargin induced cellular stress)
Settings: SH-SY5Y-ATF4-NanoLuc cells challenged with Thapsigargin for 14-18 hours; average of two or more experimental runs; read-out: average ATF4 pathway inhibitory activity (IC50)
From the text: The ATF4 reporter assay measures the effect of Thapsigargin induced cellular stress on ATF4 expression. For this reporter assay, a stable cell line was created by transfecting SH-SY5Y cells with a plasmid containing the NanoLuc® luciferase gene fused to the 5′-UTR of ATF4, under the control of the CMV promoter. The ATF4 5′-UTR contains two open reading frames which mediate the cellular stress-dependent translation of the reporter gene. Clones stably expressing the reporter construct were isolated and selected based on the luminescence response to thapsigargin and inhibition of this signal by test compounds. Briefly, SH-SY5Y-ATF4-NanoLuc cells were challenged with Thapsigargin for 14-18 hours to determine the stress effect with or without test compounds.
Cells were propagated in growth media consisting of 90% DMEM F12 (InVitrogen #11320-033), 10% Fetal Bovine Serum (Gibco #10438-026), 5 mM Glutamax (Gibco #35050-061), 5 mM Hepes, (Gibco #15630-080), and 0.5 mg/ml Geneticin (Gibco #10131-027). Cells were prepared for the assay by removing all media from cells, washing the plated cells with phosphate buffered saline, and detached by adding a solution comprised of 10% Tryple express solution (InVitrogen12604-021) and 90% enzyme-free cell dissociation buffer HANKS base (Gibco 13150-016). The trypsin was deactivated by adding assay media comprised of 90% phenol-red free DMEM F12 (InVitrogen, 11039), 10% Fetal Bovine Serum (Gibco #10438-026), (5 mM Glutamax (Gibco #35050-061), 5 mM Hepes, (Gibco #15630-080), and 0.5 mg/ml Geneticin (Gibco #10131-027). Suspended cells were spun down at 300 g for 5 min, the supernatant was removed and the cell pellet was suspended in warm media (30-37° C.) comprised as above at (1e6 cell/ml).
Assay plates were prepared by adding 250 nL of compound stock solution in 100% DMSO to each well, followed by dispensing 20 microliters/well cell suspension to deliver 15-20 k cell/well. Cells were incubated for 1 hour at 37° C. Then, 5 μL of 1.5 μM or 1 μM of Thapsigargin (final concentration: 200-300 nM) was added to each well of cells. Assay plates containing cells were incubated for 14-18 hours at 37° C.
The measurement of luciferase produced by the ATF4 constructs was measured as follows. Aliquots of the Nano-Glo reagent (Nano-Glo® Luciferase Assay Substrate, Promega, N113, Nano-Glo® Luciferase Assay Buffer, Promega, N112 (parts of Nano-Glo® Luciferase Assay System, N1150) were brought to room temperature, the substrate and buffer were mixed according to manufacturer's instructions. The cell plates were equilibrated to room temperature. 25 microliters/well of the mixed Nano-Glo reagent were dispensed into assay wells and pulse spun to settle contents and the plate was sealed with film. The plates were incubated at room temperature for 1 hour before detecting luminescence on an Envision plate reader.
Compounds of the invention are tested for activity against ATF4 translation in the above assay.

First: O=C(COc1ccc(Cl)cc1)NOC1CCN(C(=O)CCOc2ccc(Cl)cc2)C1 (stereo not drawn) [Example 35, 2-(4-chlorophenoxy)-N-((1-(3-(4-chlorophenoxy)propanoyl)pyrrolidin-3-yl)oxy)acetamide]
Second: O=C(COc1ccc(Cl)cc1)NOC1CCN(C(=O)COc2ccc(Cl)cc2)C1 (stereo not drawn) [Example 33, 2-(4-chlorophenoxy)-N-((1-(2-(4-chlorophenoxy)acetyl)pyrrolidin-3-yl)oxy)acetamide]
The IC50 of the first is lower: less than 100 nM for the first, 101 to 1000 nM for the second.

CN(Cc1ccc(Cl)cc1)C(=O)N1CCC(CNC(=O)COc2ccc(Cl)cc2)C1 (stereo not drawn) [Example 79, N-(4-chlorobenzyl)-3-((2-(4-chlorophenoxy)acetamido)methyl)-N-methylpyrrolidine-1-carboxamide] and O=C(COc1ccc(Cl)cc1)NCC1CCN(C(=O)OCCc2ccc(Cl)cc2)C1 (stereo not drawn) [Example 15, 4-chlorophenethyl 3-((2-(4-chlorophenoxy)acetamido)methyl)pyrrolidine-1-carboxylate] cannot be ordered by IC50: less than 100 nM for the first, less than 100 nM for the second.

O=C(COc1ccc(Cl)c(Cl)c1)NCC1CCN(CCCOc2ccc(Cl)cc2)C1 (stereo not drawn) [Example 44, N-((1-(3-(4-chlorophenoxy)propyl)pyrrolidin-3-yl)methyl)-2-(3,4-dichlorophenoxy)acetamide] and O=C(COc1ccc(Cl)cc1)NCC1CCN(CCCOc2ccc(Cl)c(Cl)c2)C1 (stereo not drawn) [Example 61, 2-(4-chlorophenoxy)-N-((1-(3-(3,4-dichlorophenoxy)propyl)pyrrolidin-3-yl)methyl)acetamide] cannot be ordered by IC50: less than 100 nM for the first, less than 100 nM for the second.

First: O=C(COc1ccc(Cl)cc1)N[C@H]1[C@@H]2CN(C(=O)COc3ccc(Cl)cc3)C[C@@H]21 [Example 31, 2-(4-chlorophenoxy)-N-((1R,5S,6s)-3-(2-(4-chlorophenoxy)acetyl)-3-azabicyclo[3.1.0]hexan-6-yl)acetamide]
Second: O=C(COc1ccc(Cl)cc1)N[C@H]1[C@@H]2CN(CC(O)COc3ccc(Cl)cc3)C[C@@H]21 (stereo partly drawn) [Example 76, 2-(4-chlorophenoxy)-N-((1R,5S,6s)-3-(3-(4-chlorophenoxy)-2-hydroxypropyl)-3-azabicyclo[3.1.0]hexan-6-yl)acetamide]
The IC50 of the first is higher: 101 to 1000 nM for the first, less than 100 nM for the second.

First: O=C(COc1ccc(Cl)cc1)NCC1CCN(C(=O)COc2ccc(Cl)nc2)C1 (racemic) [Example 20, 2-(4-chlorophenoxy)-N-((1-(2-((6-chloropyridin-3-yl)oxy)acetyl)pyrrolidin-3-yl)methyl)acetamide]
Second: O=C(COc1ccc(Cl)cc1)NC[C@H]1CCN(C(=O)COc2ccc(Cl)cc2)C1 [Example 30]
The IC50 of the first is higher: 1000 to 10000 nM for the first, 252 nM for the second. The second is the more potent here.

O=C(COc1ccc(F)cc1Cl)NCC1CCN(CCCOc2ccc(Cl)cc2)C1 (stereo not drawn) [Example 46, 2-(2-chloro-4-fluorophenoxy)-N-((1-(3-(4-chlorophenoxy)propyl)pyrrolidin-3-yl)methyl)acetamide] and O=C(COc1ccc(Cl)cc1)NCC1CCN(CCCOc2ccc(Cl)cc2Cl)C1 (stereo not drawn) [Example 66, 2-(4-chlorophenoxy)-N-((1-(3-(2,4-dichlorophenoxy)propyl)pyrrolidin-3-yl)methyl)acetamide] fall in the same range of IC50: 101 to 1000 nM for the first, 101 to 1000 nM for the second.

First: O=C(COc1ccc(Cl)cc1)NCC1CCN(C(=O)COc2ccc(Cl)nc2)C1 (single isomer, unassigned) [Example 11, 2-(4-chlorophenoxy)-N-((1-(2-((6-chloropyridin-3-yl)oxy)acetyl)pyrrolidin-3-yl)methyl)acetamide]
Second: O=C(COc1ccc(Cl)cc1)NCCC1CCN(C(=O)COc2ccc(Cl)cc2)C1 (stereo not drawn) [Example 16, 2-(4-chlorophenoxy)-N-(2-(1-(2-(4-chlorophenoxy)acetyl)pyrrolidin-3-yl)ethyl)acetamide]
The IC50 of the first is higher: 1000 to 10000 nM for the first, 101 to 1000 nM for the second. The second is the more potent here.

First: O=C(COc1ccc(Cl)cc1)NC1CCC2(CC1)CCN(C(=O)COc1ccc(Cl)cc1)C2 (stereo not drawn) [Example 23, 2-(4-chlorophenoxy)-N-(2-(2-(4-chlorophenoxy)acetyl)-2-azaspiro[4.5]decan-8-yl)acetamide]
Second: O=C(COc1ccc(Cl)cc1)N1CCC2(CCN(C(=O)COc3ccc(Cl)cc3)C2)C1 [Example 26, 1,1′-(2,7-diazaspiro[4.4]nonane-2,7-diyl)bis(2-(4-chlorophenoxy)ethanone)]
The IC50 of the first is lower: less than 100 nM for the first, 1000 to 10000 nM for the second.

O=C(COc1ccc(Cl)cc1)NC[C@@H]1CCN(CCCOc2ccc(Cl)cc2)C1 [Example 70, (S)-2-(4-chlorophenoxy)-N-((1-(3-(4-chlorophenoxy)propyl)pyrrolidin-3-yl)methyl)acetamide] and O=C(COc1ccc(Cl)cc1)NCC1CCN(CCCOc2ccc(F)cc2)C1 (stereo not drawn) [Example 49, 2-(4-chlorophenoxy)-N-((1-(3-(4-fluorophenoxy)propyl)pyrrolidin-3-yl)methyl)acetamide] fall in the same range of IC50: 101 to 1000 nM for the first, 101 to 1000 nM for the second.

O=C(COc1ccc(Cl)cc1)NCC1(F)CCN(C(=O)COc2ccc(Cl)cc2)C1 (stereo not drawn) [Example 36, 2-(4-chlorophenoxy)-N-((1-(2-(4-chlorophenoxy)acetyl)-3-fluoropyrrolidin-3-yl)methyl)acetamide] and CC1CC(CNC(=O)COc2ccc(Cl)cc2)CN1C(=O)COc1ccc(Cl)cc1 (stereo not drawn) [Example 39, 2-(4-chlorophenoxy)-N-((1-(2-(4-chlorophenoxy)acetyl)-5-methylpyrrolidin-3-yl)methyl)acetamide] fall in the same range of IC50: 101 to 1000 nM for the first, 101 to 1000 nM for the second.

First: O=C(COc1ccc(Cl)cc1)NC1[C@H]2CN(C(CCOc3ccc(Cl)cc3)C(=O)O)C[C@@H]12 (stereo partly drawn) [Example 82, 4-(4-chlorophenoxy)-2-((1R,5S)-6-(2-(4-chlorophenoxy)acetamido)-3-azabicyclo[3.1.0]hexan-3-yl)butanoic acid hydrochloride]
Second: O=C(COc1ccc(Cl)cc1)N1CC2CN(C(=O)COc3ccc(Cl)cc3)CC2C1 (stereo not drawn) [Example 6, 1,1′-(tetrahydropyrrolo[3,4-c]pyrrole-2,5(1H,3H)-diyl)bis(2-(4-chlorophenoxy)ethanone)]
The IC50 of the first is lower: less than 100 nM for the first, 1000 to 10000 nM for the second. The first is the more potent here.

O=C(COc1ccc(Cl)cc1)NCC1CCN(CC(=O)Nc2ccc(Cl)cc2)C1 (stereo not drawn) [Example 4, 2-(4-chlorophenoxy)-N-((1-(2-((4-chlorophenyl)amino)-2-oxoethyl)pyrrolidin-3-yl)methyl)acetamide] and O=C(COc1ccc(Cl)cc1)NCC1CCN(C(=O)C2CC2c2ccc(Cl)cc2)C1 (stereo not drawn) [Example 40, 2-(4-chlorophenoxy)-N-((1-(2-(4-chlorophenyl)cyclopropanecarbonyl)pyrrolidin-3-yl)methyl)acetamide] cannot be ordered by IC50: less than 100 nM for the first, less than 100 nM for the second.

Compared with O=C(COc1ccc(Cl)cc1)NCC1CCN(C(=O)C2Cc3cc(Cl)ccc3O2)C1 (stereo not drawn) [Example 9, N-((1-(5-chloro-2,3-dihydrobenzofuran-2-carbonyl)pyrrolidin-3-yl)methyl)-2-(4-chlorophenoxy)acetamide], O=C(COc1ccc(Cl)cc1)NCC1CCN(CCCOc2ccc(Cl)cn2)C1 (stereo not drawn) [Example 69, 2-(4-chlorophenoxy)-N-((1-(3-((5-chloropyridin-2-yl)oxy)propyl)pyrrolidin-3-yl)methyl)acetamide] is lower in IC50: 101 to 1000 nM for the first, less than 100 nM for the second. The second is the more potent here.

O=C(COc1ccc(C(F)(F)F)cc1)NCC1CCN(CCCOc2ccc(Cl)cc2)C1 (stereo not drawn) [Example 45, N-((1-(3-(4-chlorophenoxy)propyl)pyrrolidin-3-yl)methyl)-2-(4-(trifluoromethyl)phenoxy)acetamide] showed an IC50 of less than 100 nM.

In the case of O=C(COc1ccc(Cl)cc1)NCC1CCN(CCCOc2ccc(Cl)c(F)c2)C1 (stereo not drawn) [Example 64, N-((1-(3-(4-chloro-3-fluorophenoxy)propyl)pyrrolidin-3-yl)methyl)-2-(4-chlorophenoxy)acetamide], the IC50 is reported as 101 to 1000 nM and 127 nM.

Same assay, conditions: read-out: average ATF4 pathway inhibitory activity (IC50)

O=C(COc1ccc(Cl)cc1)NCC1CCN(C(=O)COc2ccc(Cl)cc2)C1 (stereo not drawn) [Example 1, 2-(4-chlorophenoxy)-N-((1-(2-(4-chlorophenoxy)acetyl)pyrolidin-3-yl)methyl)acetamide] and O=C(COc1ccc(Cl)cc1)NC[C@H]1CCN(C(=O)COc2ccc(Cl)cc2)C1 [Example 30] fall in the same range of IC50: 101 to 1000 nM for the first, 101 to 1000 nM for the second.
